For three compounds, inhibition and Activity results are on record in ChEMBL document CHEMBL1806482, “Flavans from Iris tenuifolia and their effects on β-amyloid aggregation and neural stem cells proliferation in vitro” (Bioorg Med Chem Lett, 2011).

For orientation: inhibition means the share of the control response that was lost under treatment. High values mean a response far below the control, low ones a response near the control.

Experiment [1] is described as follows: Inhibition of amyloid beta (1 to 40) aggregation after 30 mins by thioflavin T fluorescence assay.
The next experiment relates to NSC. The experiment is described as follows: Induction of NSC proliferation assessed as ATP level. It is filed as functional, cell-based.

The source made the active and inactive calls. The calls are words filed in the database; no cut-off is given here.

In turn, `C[C@H]1COC2=C1C(=O)C(=O)c1c2ccc2c1CCCC2(C)C` yielded an inhibition in experiment [1] of 43.7%.

In experiment [1], `O=C1CC(c2cccc(O)c2O)Oc2cc3c(c(O)c21)OCO3` (stereo not given) gave an inhibition of 61.7%. The result in the experiment with NSC was Active.

`COc1cc(OC)c2c(c1)O[C@H]1C[C@@H]2Oc2c(O)cccc21`: the inhibition in experiment [1] stood at 19.8%. In addition, in the experiment with NSC, the result was inactive.
